Source: US20250326771A1, “PIPERAZINE DERIVATIVES USEFUL IN HIV THERAPY” (VIIV HEALTHCARE COMPANY, priority 2022, published 2025)

What was measured:
XIAP-BIR3 = XIAP-BIR3 (Homo sapiens (Human), UniProt P98170); experiment: BIR binding assay (FRET competition), XIAP BIR3
Method in brief: (§1)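 615/665 nm FRET ratio. Compound, His-domain and 200 nM AF647-SMAC peptide incubated 60 min, then 2 nM Eu-W1024 for 30 min. Domains: cIAP1-BIR3 50 nM; XIAP-BIR3 100 nM; cIAP1-BIR2, cIAP2-BIR2 325 nM each. 15-pt 3-fold series; variable-slope IC50.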

cIAP2-BIR2 = cIAP2-BIR2 (Homo sapiens (Human), UniProt Q13489); experiment: BIR binding assay (FRET competition), cIAP2 BIR2
Sequence of cIAP2-BIR2 (Q13489 158-242): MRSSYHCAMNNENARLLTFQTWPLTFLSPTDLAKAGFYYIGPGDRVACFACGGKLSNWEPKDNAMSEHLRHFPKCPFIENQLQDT
Experimental: (§2) The BIR domain binding assays are FRET based competition assays that utilize His-tagged versions of each of the BIR2 and BIR3 domains from cIAP1, cIAP2, and XIAP (each domain assayed separately) each at a custom optimal concentration and a probe, 200 nM SMAC/DIABLO peptide […] labelled with AlexaFluor647 (part #crb 1110326h, Discovery Peptides). The assay is conducted in 50 mM HEPES, […], 1 mM CHAPS, 5% Glycerol, 1 mM DTT, in dI water with a final pH of 7.4 and final volume of 20 uL. Final protein domain concentrations are: 50 nM cIAP1-BIR3 (Part #APT-11-370 Reaction Biology), 100 nM XIAP-BIR3 (Part #APT-11-351 Reaction Biology), 200 nM XIAP-BIR2 (Part #APT-11-470 Reaction Biology), 325 nM cIAP2-BIR2 (Part #APT-11-489 Reaction Biology), 50 nM cIAP2-BIR3 (Part #APT-11-372 Reaction Biology), 325 nM cIAP1-BIR2 (Part #APT-11-487 Reaction Biology). Compounds were plated using a HP Tecan D300 printer in a final total volume of 202 nl and DMSO concentration normalized across the 15-point, 3-fold dilution series. Peptide and probe were prepared at 2× relative to the concentrations above in binding buffer, 10 uL added to the prepared compound plates, and incubated for 60 minutes. LANCE Eu-W1024 (part #AD0401 Perkin Elmer #, vendor) was prepared at 2× concentration in binding buffer for final concentration of 2 nM, 10 uL added to each well, and plates incubated for 30 minutes. Plates were read on an ENVISION multifunction plate reader with […] laser excitation to obtain the 615 nm/665 nm emission ratio as indicative of probe:protein proximity. Data was analyzed using GraphPad PRISM and curves fit using log(inhibitor) vs. response—Variable slope (four […] method to obtain IC50 and pIC50 values.

cIAP1-BIR3 = cIAP1-BIR3 (Homo sapiens (Human), UniProt Q13490); experiment: BIR binding assay (FRET competition), cIAP1 BIR3; details: for cIAP1 BIR3 vs BIR2 separation window: fold separation (FS) for cIAP1
Sequence of cIAP1-BIR3 (Q13490 253-363): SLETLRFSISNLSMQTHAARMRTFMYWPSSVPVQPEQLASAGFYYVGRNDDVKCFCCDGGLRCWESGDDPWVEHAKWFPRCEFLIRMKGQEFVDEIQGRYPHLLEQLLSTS
Method in brief: as §1

[1] = tested on: Jurkat HIV-luciferase clones; experiment: Jurkat latency reversal assay; assay type: cell-based; details: Homo sapiens, 48 h; Jurkat latency reversal assay potency; read-out: Jurkat pEC50 (converted)
Method in brief: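 Luminescence read-out: Steady-Glo after 48 h, 37° C, on mixed Jurkat HIV-luc clones (C16, 115, N6; 5,000 cells/well total). Cpd 14-pt 3-fold dilutions, duplicate, top 10 μM, 0.5% DMSO. EC50 + max % activation vs vehicle via 4-parameter fit.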

cIAP1-BIR2 = cIAP1-BIR2 (Homo sapiens (Human), UniProt Q13490); experiment: BIR binding assay (FRET competition), cIAP1 BIR2
Sequence of cIAP1-BIR2 (Q13490 173-257): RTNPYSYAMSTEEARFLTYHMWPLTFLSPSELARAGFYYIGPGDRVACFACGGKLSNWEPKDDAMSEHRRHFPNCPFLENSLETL
Experimental: as §2

cIAP2-BIR3 = cIAP2-BIR3 (Homo sapiens (Human), UniProt Q13489); experiment: BIR binding assay (FRET competition), cIAP2 BIR3; details: for cIAP2 BIR3 vs BIR2 separation window: fold separation (FS) for cIAP2
Sequence of cIAP2-BIR3 (Q13489 238-349): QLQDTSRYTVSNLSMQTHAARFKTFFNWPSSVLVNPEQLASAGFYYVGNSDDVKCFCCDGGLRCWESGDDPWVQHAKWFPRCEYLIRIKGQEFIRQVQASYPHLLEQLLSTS

Sequence of XIAP-BIR3 (P98170 241-356): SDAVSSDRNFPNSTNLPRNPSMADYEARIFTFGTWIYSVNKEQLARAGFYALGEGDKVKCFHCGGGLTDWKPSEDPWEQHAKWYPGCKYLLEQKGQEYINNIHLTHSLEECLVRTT

Structure (SMILES) | IC50 (XIAP-BIR3) | IC50 (cIAP2-BIR2) | IC50 (cIAP1-BIR3) | cIAP1 BIR3 vs BIR2 separation window (cIAP1-BIR3) | EC50 [1] | IC50 (cIAP1-BIR2) | IC50 (cIAP2-BIR3) | cIAP2 BIR3 vs BIR2 separation window (cIAP2-BIR3)
C[C@@H]1CN(CC(=O)N2CC(C)(C)c3[nH]c(=O)c(Cc4ccc(Cl)cc4Cl)cc32)[C@@H](CN2CCO[C@H](C(=O)NCc3ccc(CNC(=O)[C@@H]4CN(C[C@H]5CN[C@H](C)CN5CC(=O)N5CC(C)(C)c6[nH]c(=O)c(Cc7ccc(Cl)cc7Cl)cc65)CCO4)cc3)C2)CN1 [Compound 165, (2S,2′S)-N,N′-(1,4-phenylenebis(methylene)) bis(4-(((2R,5R)-1-(2-(6-(2,4-dichlorobenzyl)-3,3-dimethyl-5-oxo-2,3,4,5-tetrahydro-1H-pyrrolo[3,2-b]pyridin-1-yl)-2-oxoethyl)-5-methylpiperazin-2-yl)methyl)morpholine-2-carboxamide)] | 31.6 to 501 nM | 3160 to 10000 nM | 7.94 to 15.8 nM | +++ (10,000>FS>1,000) | 12.6 to 63.1 nM | 1000 to 3160 nM | 1.38 to 7.94 nM | +++ (10,000>FS>1,000)
C[C@@H]1CN(CC(=O)N2CC(C)(C)c3[nH]c(=O)c(Cc4ccc(F)c(F)c4F)cc32)[C@@H](CN2CCO[C@H](C(=O)NCc3ccc(CNC(=O)[C@@H]4CN(C[C@H]5CN[C@H](C)CN5CC(=O)N5CC(C)(C)c6[nH]c(=O)c(Cc7ccc(F)c(F)c7F)cc65)CCO4)cc3)C2)CN1 [Compound 178, (2S,2′S)-N,N′-(1,4-phenylenebis(methylene)) bis(4-(((2R,5R)-1-(2-(3,3-dimethyl-5-oxo-6-(2,3,4-trifluorobenzyl)-2,3,4,5-tetrahydro-1H-pyrrolo[3,2-b]pyridin-1-yl)-2-oxoethyl)-5-methylpiperazin-2-yl)methyl)morpholine-2-carboxamide)] | 15.8 to 31.6 nM | 1000 to 3160 nM | 15.8 to 31.6 nM | +++ (10,000>FS>1,000) | 0.49 to 12.6 nM | 1000 to 3160 nM | 7.94 to 15.8 nM | +++ (10,000>FS>1,000)
C[C@@H]1CN(CC(=O)N2CC(C)(C)c3[nH]c(=O)c(Cc4c(F)cc(F)cc4F)cc32)[C@@H](CN2CCO[C@H](COc3cccc(OC[C@@H]4CN(C[C@H]5CN[C@H](C)CN5CC(=O)N5CC(C)(C)c6[nH]c(=O)c(Cc7c(F)cc(F)cc7F)cc65)CCO4)c3)C2)CN1 [Compound 188] | 15.8 to 31.6 nM | 1000 to 3160 nM | 15.8 to 31.6 nM | +++ (10,000>FS>1,000) | 0.49 to 12.6 nM | 1000 to 3160 nM | 15.8 to 31.6 nM | ++ (1,000>FS>100)
C[C@@H]1CN(CC(=O)N2CC(C)(C)c3[nH]c(=O)c(Cc4ccc(Br)cc4)cc32)[C@@H](CN2CCO[C@H](C(=O)NCc3ccc(CNC(=O)[C@@H]4CN(C[C@H]5CN[C@H](C)CN5CC(=O)N5CC(C)(C)c6[nH]c(=O)c(Cc7ccc(Br)cc7)cc65)CCO4)cc3)C2)CN1 [Compound 162, (2S,2′S)-N,N′-(1,4-phenylenebis(methylene)) bis(4-(((2R,5R)-1-(2-(6-(4-bromobenzyl)-3,3-dimethyl-5-oxo-2,3,4,5-tetrahydro-1H-pyrrolo[3,2-b]pyridin-1-yl)-2-oxoethyl)-5-methylpiperazin-2-yl)methyl)morpholine-2-carboxamide)] | 15.8 to 31.6 nM | 22.4 to 1000 nM | 1.38 to 7.94 nM | ++ (1,000>FS>100) | 12.6 to 63.1 nM | 22.4 to 1000 nM | 1.38 to 7.94 nM | +++ (10,000>FS>1,000)
C[C@@H]1CN(CC(=O)N2CC(C)(C)c3[nH]c(=O)c(Cc4ccc(Cl)cc4O)cc32)[C@@H](CN2CCO[C@H](C(=O)NCc3ccc(CNC(=O)[C@@H]4CN(C[C@H]5CN[C@H](C)CN5CC(=O)N5CC(C)(C)c6[nH]c(=O)c(Cc7ccc(Cl)cc7O)cc65)CCO4)cc3)C2)CN1 [Compound 164, (2S,2′S)-N,N′-(1,4-phenylenebis(methylene)) bis(4-(((2R,5R)-1-(2-(6-(4-chloro-2-hydroxybenzyl)-3,3-dimethyl-5-oxo-2,3,4,5-tetrahydro-1H-pyrrolo[3,2-b]pyridin-1-yl)-2-oxoethyl)-5-methylpiperazin-2-yl)methyl)morpholine-2-carboxamide)] | 7.94 to 15.8 nM | 22.4 to 1000 nM | 1.38 to 7.94 nM | ++ (1,000>FS>100) | 63.1 to 316 nM | 22.4 to 1000 nM | 1.38 to 7.94 nM | ++ (1,000>FS>100)
C[C@@H]1CN(CC(=O)N2CC(C)(C)c3[nH]c(=O)c(Cc4ccc(F)cc4)cc32)[C@@H](CN2CCN(C(=O)COc3ccc(OCC(=O)N4CCN(C[C@H]5CN[C@H](C)CN5CC(=O)N5CC(C)(C)c6[nH]c(=O)c(Cc7ccc(F)cc7)cc65)[C@H](C)C4)cc3)C[C@H]2C)CN1 [Example 13, 1,1′-(2,2′-((3R,3′R,6R,6′R)-(((2R,2′R)-(2,2′-(1,4-phenylenebis(oxy))bis(acetyl))bis(2-methylpiperazine-4,1-diyl))bis(methylene))bis(3-methylpiperazine-6,1-diyl))bis(acetyl))bis(6-(4-fluorobenzyl)-3,3-dimethyl-1,2,3,4-tetrahydro-5H-pyrrolo[3,2-b]pyridin-5-one)] | 15.8 to 31.6 nM | 1000 to 3160 nM | 15.8 to 31.6 nM | – | 63.1 to 316 nM | 22.4 to 1000 nM | 15.8 to 31.6 nM | –
C[C@@H]1CN(CC(=O)N2CC(C)(C)c3[nH]c(=O)c(Cc4ccc(F)cc4)cc32)[C@@H](CN2CCO[C@H](COc3ccc(C(=O)C(=O)c4ccc(OC[C@@H]5CN(C[C@H]6CN[C@H](C)CN6CC(=O)N6CC(C)(C)c7[nH]c(=O)c(Cc8ccc(F)cc8)cc76)CCO5)cc4)cc3)C2)CN1 [Example 59, 1,2-bis(4-(((S)-4-(((2R,5R)-1-(2-(6-(4-fluorobenzyl)-3,3-dimethyl-5-oxo-2,3,4,5-tetrahydro-1H-pyrrolo[3,2-b]pyridin-1-yl)-2-oxoethyl)-5-methylpiperazin-2-1)methyl)morpholin-2-yl)methoxy)phenyl)ethane-1,2-dione] | 15.8 to 31.6 nM | 3160 to 10000 nM | 15.8 to 31.6 nM | +++ (10,000>FS>1,000) | 0.49 to 12.6 nM | 3160 to 10000 nM | 7.94 to 15.8 nM | +++ (10,000>FS>1,000)
C[C@@H]1CN(CC(=O)N2CC(C)(C)c3[nH]c(=O)c(Cc4ccc(F)cc4)cc32)[C@@H](CN2CCO[C@H](C(=O)NCCCCCCCCNC(=O)[C@@H]3CN(C[C@H]4CN[C@H](C)CN4CC(=O)N4CC(C)(C)c5[nH]c(=O)c(Cc6ccc(F)cc6)cc54)CCO3)C2)CN1 [Example 119, (2S,2'S)-N,N′-(octane-1,8-diyl)bis(4-(((2R,5R)-1-(2-(6-(4-fluorobenzyl)-3,3-dimethyl-5-oxo-2,3,4,5-tetrahydro-1H-pyrrolo[3,2-b]pyridin-1-yl)-2-oxoethyl)-5-methylpiperazin-2-yl)methyl)morpholine-2-carboxamide)] | 7.94 to 15.8 nM | 22.4 to 1000 nM | 1.38 to 7.94 nM | +++ (10,000>FS>1,000) | 12.6 to 63.1 nM | 1000 to 3160 nM | 1.38 to 7.94 nM | +++ (10,000>FS>1,000)
C[C@@H]1CN(CC(=O)N2CC(C)(C)c3[nH]c(=O)c(Cc4ccc(Cl)cc4C#N)cc32)[C@@H](CN2CCO[C@H](COc3cccc(OC[C@@H]4CN(C[C@H]5CN[C@H](C)CN5CC(=O)N5CC(C)(C)c6[nH]c(=O)c(Cc7ccc(Cl)cc7C#N)cc65)CCO4)c3)C2)CN1 [Compound 189] | 31.6 to 501 nM | 3160 to 10000 nM | 15.8 to 31.6 nM | +++ (10,000>FS>1,000) | 0.49 to 12.6 nM | 1000 to 3160 nM | 15.8 to 31.6 nM | +++ (10,000>FS>1,000)
